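These data come from cells grown in 96-well plates and exposed to compound for 48 hours at five concentrations. GI50 is the concentration that inhibits growth by half.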 Active and inactive are the calls of the source. Cut-off read from the data, not from the text of the source: active = GI50 up to about 1.1 µM and inactive = higher. Where a SMILES comes first, the peptide text is derived from it. [ ]: non-standard residue; d: D form. Ac5c = NC1(C(=O)O)CCCC1
Columns and labels:
Test in all cases: inhibition of tumour cell growth, NCI panel, 48 h
786-0 = system: 786-0
A498 = system: A498
HCT-116 = system: HCT-116
HL-60 = system: HL-60
HOP-92 = system: HOP-92
K562 = system: K562
MDA-MB-435 = system: MDA-MB-435
NCI-H460 = system: NCI-H460
NCI/ADR-RES = system: NCI/ADR-RES
OVCAR-4 = system: OVCAR-4
OVCAR-5 = system: OVCAR-5
PC-3 = system: PC-3
RXF 393 = system: RXF 393
SF-295 = system: SF-295
SK-MEL-5 = system: SK-MEL-5
SN12C = system: SN12C
SR = system: SR
T47D = system: T47D
HCC 2998 = system: HCC 2998
SK-MEL-28 = system: SK-MEL-28

| Structure (SMILES) | GI50 (786-0) | GI50 (A498) | GI50 (HCT-116) | GI50 (HL-60) | GI50 (HOP-92) | GI50 (K562) | GI50 (MDA-MB-435) | GI50 (NCI-H460) | GI50 (NCI/ADR-RES) | GI50 (OVCAR-4) | GI50 (OVCAR-5) | GI50 (PC-3) | GI50 (RXF 393) | GI50 (SF-295) | GI50 (SK-MEL-5) | GI50 (SN12C) | GI50 (SR) | GI50 (T47D) | GI50 (HCC 2998) | GI50 (SK-MEL-28) |
| --- | --- | --- | --- | --- | --- | --- | --- | --- | --- | --- | --- | --- | --- | --- | --- | --- | --- | --- | --- | --- |
| Cc1ccc(C2(N3CCCC3)OC(C)(C)c3cccc4cccc2c34)cc1 (stereo not drawn) | 18.7 µM (inactive) | 16.2 µM (inactive) | 15.6 µM (inactive) | 30.8 µM (inactive) | 1.48 µM (inactive) | 22.3 µM (inactive) | 14.8 µM (inactive) | 13.5 µM (inactive) | 15 µM (inactive) | 14.5 µM (inactive) | 15.8 µM (inactive) | 15.4 µM (inactive) | 13.5 µM (inactive) | 14.5 µM (inactive) | 15 µM (inactive) | 17.5 µM (inactive) | 23.2 µM (inactive) | 16.3 µM (inactive) |  |  |
| CCc1cccc(C(C)C)c1NC(=O)C(=O)Nn1c(S)nc2ccccc2c1=O | > 100 µM (inactive) | > 100 µM (inactive) | > 100 µM (inactive) |  | > 100 µM (inactive) | > 100 µM (inactive) | > 100 µM (inactive) | > 100 µM (inactive) | 47.8 µM (inactive) | > 100 µM (inactive) | > 100 µM (inactive) | > 100 µM (inactive) | > 100 µM (inactive) | > 100 µM (inactive) | > 100 µM (inactive) | > 100 µM (inactive) | 77.3 µM (inactive) | > 100 µM (inactive) | > 100 µM (inactive) | > 100 µM (inactive) |
| Brc1ccc(C2C3CSc4ccccc4C3=NN2c2ccccc2)cc1 (stereo not drawn) | > 100 µM (inactive) | > 100 µM (inactive) | > 100 µM (inactive) | 42.9 µM (inactive) | > 100 µM (inactive) | 77.4 µM (inactive) | > 100 µM (inactive) | 32.8 µM (inactive) | 77.6 µM (inactive) | 7.62 µM (inactive) |  | 43.8 µM (inactive) | > 100 µM (inactive) |  | 31.8 µM (inactive) | > 100 µM (inactive) | 44.2 µM (inactive) | 14.3 µM (inactive) |  | 67.5 µM (inactive) |
| O=C(O)COCC(=O)N(CCOCCN(Cc1ccccc1)C(=O)COCC(=O)O)Cc1ccccc1 | > 100 µM (inactive) | > 100 µM (inactive) | > 100 µM (inactive) | > 100 µM (inactive) | < 0.01 µM (active) | > 100 µM (inactive) | > 100 µM (inactive) | > 100 µM (inactive) | > 100 µM (inactive) |  | > 100 µM (inactive) | > 100 µM (inactive) | > 100 µM (inactive) | > 100 µM (inactive) | > 100 µM (inactive) | > 100 µM (inactive) | > 100 µM (inactive) | > 100 µM (inactive) | > 100 µM (inactive) | > 100 µM (inactive) |
| CCCCCCNC(=O)c1cc(CCc2cc(O)ccc2O)ccc1O | 2.04 µM (inactive) | 4.24 µM (inactive) |  | 0.723 µM (active) | 1.72 µM (inactive) | 2.38 µM (inactive) | 3.61 µM (inactive) | 8.57 µM (inactive) | 3.61 µM (inactive) | 2.47 µM (inactive) | 7.05 µM (inactive) | 2.18 µM (inactive) | 1.8 µM (inactive) | 14.1 µM (inactive) | 4.62 µM (inactive) |  | 2.23 µM (inactive) | 1.85 µM (inactive) | 3.15 µM (inactive) | 2.74 µM (inactive) |
| NC1(C(=O)NC2(C(=O)O)CCCC2)CCCC1 (H-[Ac5c]-[Ac5c]-OH) | > 100 µM (inactive) | > 100 µM (inactive) | > 100 µM (inactive) | > 100 µM (inactive) | > 100 µM (inactive) | > 100 µM (inactive) | > 100 µM (inactive) | > 100 µM (inactive) | > 100 µM (inactive) | > 100 µM (inactive) | > 100 µM (inactive) | > 100 µM (inactive) | > 100 µM (inactive) | > 100 µM (inactive) | > 100 µM (inactive) | > 100 µM (inactive) | > 100 µM (inactive) | > 100 µM (inactive) |  | > 100 µM (inactive) |
| NS(=O)(=O)c1cc2c(cc1Cl)NCNS2(=O)=O [HYDROCHLOROTHIAZIDE] | > 100 µM (inactive) |  | > 100 µM (inactive) | > 100 µM (inactive) | > 100 µM (inactive) | > 100 µM (inactive) | > 100 µM (inactive) | > 100 µM (inactive) | > 100 µM (inactive) | > 100 µM (inactive) | > 100 µM (inactive) | > 100 µM (inactive) |  | > 100 µM (inactive) | > 100 µM (inactive) | > 100 µM (inactive) | > 100 µM (inactive) | > 100 µM (inactive) | > 100 µM (inactive) | > 100 µM (inactive) |
